Measured values: ChEMBL document CHEMBL4014295, “Discovery and structure-activity relationship studies of N-substituted indole derivatives as novel Mcl-1 inhibitors” (Bioorg Med Chem Lett, 2017)
pKi: −log10 of the molar value.

Key:
[1] = biological target: Apoptosis regulator Bcl-2 (Homo sapiens, UniProt P10415); assay: Inhibition of 6-carboxyfluorescein succinimidyl ester fluorescence tagged-Bid BH3 peptide (79 to 99 residues) binding to Bcl-2 (unknown origin) after 30 mins by fluorescence polarization assay
Chain of Apoptosis regulator Bcl-2 (P10415 whole entry, the tested form may be a part): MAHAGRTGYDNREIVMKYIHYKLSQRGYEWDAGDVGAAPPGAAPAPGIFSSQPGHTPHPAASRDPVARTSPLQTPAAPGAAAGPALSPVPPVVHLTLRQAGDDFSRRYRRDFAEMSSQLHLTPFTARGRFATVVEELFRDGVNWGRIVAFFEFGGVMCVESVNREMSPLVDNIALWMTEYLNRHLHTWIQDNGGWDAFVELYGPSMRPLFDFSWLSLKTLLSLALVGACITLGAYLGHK

[2] = biological target: Induced myeloid leukemia cell differentiation protein Mcl-1 (Homo sapiens, UniProt Q07820); assay: Inhibition of 6-carboxyfluorescein succinimidyl ester fluorescence tagged-Bid BH3 peptide (79 to 99 residues) binding to Mcl-1 (unknown origin) after 30 mins by fluorescence polarization assay
Chain of Induced myeloid leukemia cell differentiation protein Mcl-1 (Q07820 whole entry, the tested form may be a part): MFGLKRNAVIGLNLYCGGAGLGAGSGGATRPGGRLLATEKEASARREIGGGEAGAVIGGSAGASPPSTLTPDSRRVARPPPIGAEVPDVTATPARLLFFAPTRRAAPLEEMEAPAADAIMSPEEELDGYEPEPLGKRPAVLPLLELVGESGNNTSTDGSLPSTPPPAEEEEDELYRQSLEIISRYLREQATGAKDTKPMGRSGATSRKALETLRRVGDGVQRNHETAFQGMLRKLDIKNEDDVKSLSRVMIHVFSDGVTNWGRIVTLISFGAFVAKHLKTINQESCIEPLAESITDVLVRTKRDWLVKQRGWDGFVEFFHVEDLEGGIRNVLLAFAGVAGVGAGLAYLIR

Structure (SMILES) | pKi [1] | pKi [2]
CNC(=O)c1cc2ccc(OCc3ccccc3C(=O)O)cc2n1CCCOc1cc(C)c(Cl)c(C)c1 | 6.09 | 6.05
CC(C)(C)Oc1ccc(OCCCn2ccc3ccc(OCC(=O)O)cc32)cc1 |  | 5.73
Cc1cc(OCCCn2c(C(=O)N(C)C)cc3ccc(OCc4ccccc4C(=O)O)cc32)cc(C)c1Cl | 6.14 | 6.24
Cc1cc(OCCCn2c(C(N)=O)cc3ccc(OCc4ccccc4C(=O)O)cc32)cc(C)c1Cl | 6.07 | 6.02
Cc1cc(OCCCn2ccc3cc(OCc4cccc(C(=O)O)c4)ccc32)cc(C)c1Cl | 6.39 | 6.70
Cc1cc(OCCCn2ccc3ccc(C(=O)O)cc32)cc(C)c1Cl |  | 5.52
Cc1cc(OCCCn2ccc3cc(OCc4ccc(C(=O)O)cc4)ccc32)cc(C)c1Cl | 5.85 | 5.79
Cc1cc(OCCn2ccc3ccc(OCC(=O)O)cc32)cc(C)c1Cl |  | 4.94
CC(C)(C)c1ccc(OCCn2ccc3ccc(OCC(=O)O)cc32)cc1 |  | 5.09
Cc1cc(OCCCn2ccc3ccc(OCc4cccc(C(=O)O)c4)cc32)cc(C)c1Cl | 5.92 | 6.13
Cc1cc(OCCCn2ccc3c(OCC(=O)O)cccc32)cc(C)c1Cl |  | 5.70
CCOC(=O)c1ccc2ccn(CCCOc3cc(C)c(Cl)c(C)c3)c2c1 |  | < 4.52
Cc1cc(OCCCn2ccc3cc(OCC(=O)O)ccc32)cc(C)c1Cl |  | 5.83
Cc1cc(OCCCn2ccc3ccc(OCC(=O)O)cc32)ccc1Cl |  | 5.00
COc1ccc(OCCCn2c(C(N)=O)cc3ccc(OCC(=O)O)cc32)cc1 |  | 5.11
Cc1cc(OCCCn2ccc3ccccc32)cc(C)c1Cl |  | < 4.52
COc1ccc(OCCCn2ccc3ccc(OCC(=O)O)cc32)cc1 |  | 5.35
CC(C)(C)c1ccc(OCCCn2ccc3cc(OCc4cccc(C(=O)O)c4)ccc32)cc1 | 6.33 | 6.60
CC(C)(C)c1ccc(OCCCn2c(C(=O)N3CCCCC3)cc3ccc(OCc4ccccc4C(=O)O)cc32)cc1 | 6.82 | 6.44
Cc1cc(C)cc(OCCCn2ccc3ccc(OCC(=O)O)cc32)c1 |  | 4.90
O=C(O)COc1ccc2ccn(CCCOc3cccc4ccccc34)c2c1 |  | 5.59

Structure (SMILES) | pKi [1] | pKi [2]
Cc1cc(OCCCn2ccc3c(OCc4ccccc4C(=O)O)cccc32)cc(C)c1Cl | 6.64 | 6.85
Cc1cc(OCCCn2ccc3ccc(OCCO)cc32)cc(C)c1Cl |  | 5.68
Cc1ccc2ccn(CCCOc3cc(C)c(Cl)c(C)c3)c2c1 |  | < 4.52
O=C(O)COc1ccc2ccn(CCCOc3ccccc3)c2c1 |  | < 4.52
O=C(O)COc1ccc2ccn(CCCOc3ccc(Oc4ccccc4)cc3)c2c1 |  | 5.49
Cc1cccc(OCCCn2ccc3ccc(OCC(=O)O)cc32)c1 |  | < 4.52
Cc1cc(OCCCn2ccc3ccc(OCc4ccc(C(=O)O)cc4)cc32)cc(C)c1Cl | 5.91 | 5.92
Cc1cc(OCCCn2ccc3cc(OCc4ccccc4C(=O)O)ccc32)cc(C)c1Cl | 6.12 | 6.96
CC(C)(C)c1ccc(SCCCn2ccc3ccc(OCC(=O)O)cc32)cc1 |  | 5.62
NC(=O)c1cc2ccc(OCC(=O)O)cc2n1CCCOc1ccc(Oc2ccccc2)cc1 |  | 5.38
Cc1cc(OCCCn2ccc3ccc(OCc4ccccc4C(=O)O)cc32)cc(C)c1Cl | 5.98 | 6.10
CCOC(=O)COc1ccc2ccn(CCCOc3cc(C)c(Cl)c(C)c3)c2c1 |  | 5.47
Cc1cc(OCCCn2ccc3ccc(OCCCC(=O)O)cc32)cc(C)c1Cl |  | 5.57
NC(=O)c1cc2ccc(OCC(=O)O)cc2n1CCCOc1cccc2ccccc12 |  | 4.99
Cc1cc(OCCCn2c(C(=O)N3CCCCC3)cc3ccc(OCc4ccccc4C(=O)O)cc32)cc(C)c1Cl | 6.57 | 6.70
Cc1cc2c(C(C)C)c(O)c(O)c(C=O)c2c(O)c1-c1c(C)cc2c(C(C)C)c(O)c(O)c(C=O)c2c1O [GOSSYPOL] |  | 6.70
CC(C)(C)c1ccc(OCCCn2ccc3cc(OCc4ccccc4C(=O)O)ccc32)cc1 | 6.77 | 6.51
O=C(O)COc1ccc2ccn(CCCOc3ccc(Cl)cc3)c2c1 |  | 4.89
Cc1cc(OCCCn2ccc3ccc(OCC(=O)O)cc32)cc(C)c1Cl |  | 5.82
Cc1cc(OCCCn2ccc3c(OCc4cccc(C(=O)O)c4)cccc32)cc(C)c1Cl | 6.85 | 6.82
CC(C)(C)Oc1ccc(OCCCn2c(C(N)=O)cc3ccc(OCC(=O)O)cc32)cc1 |  | 5.27
